From ChEMBL document CHEMBL1201862, “PubChem BioAssay data set” (2004)
Active and inactive are the calls of the source.

Columns and labels:
[1] = target: Serine/threonine-protein phosphatase PP1-alpha catalytic subunit (Homo sapiens, UniProt P62136); test: PP1 phosphatase inhibitors, dose response, biochemical, fluorescence (AID 2403);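 note: phosphatase turnover of OMFP into fluorescent 3-O-methylfluorescein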
[2] = target: Serine/threonine-protein phosphatase (Homo sapiens, UniProt Q9BPW0); test: Counterscreen for inhibitors of PP1: fluorescence-based biochemical high throughput dose response assay to identify inhibitors of Protein Phosphatase 5 (PP5). [Related pubchem assays: 2034 (Summary (PP5 inhibitors)), 1987 (PP5 inhibitors in singlate), 2235 (PP1 inhibitors in singlate)]
[3] = target: T1, Alkaline phosphatase, tissue-nonspecific isozyme (Homo sapiens, UniProt P05186)
T1 sequence (P05186 whole entry): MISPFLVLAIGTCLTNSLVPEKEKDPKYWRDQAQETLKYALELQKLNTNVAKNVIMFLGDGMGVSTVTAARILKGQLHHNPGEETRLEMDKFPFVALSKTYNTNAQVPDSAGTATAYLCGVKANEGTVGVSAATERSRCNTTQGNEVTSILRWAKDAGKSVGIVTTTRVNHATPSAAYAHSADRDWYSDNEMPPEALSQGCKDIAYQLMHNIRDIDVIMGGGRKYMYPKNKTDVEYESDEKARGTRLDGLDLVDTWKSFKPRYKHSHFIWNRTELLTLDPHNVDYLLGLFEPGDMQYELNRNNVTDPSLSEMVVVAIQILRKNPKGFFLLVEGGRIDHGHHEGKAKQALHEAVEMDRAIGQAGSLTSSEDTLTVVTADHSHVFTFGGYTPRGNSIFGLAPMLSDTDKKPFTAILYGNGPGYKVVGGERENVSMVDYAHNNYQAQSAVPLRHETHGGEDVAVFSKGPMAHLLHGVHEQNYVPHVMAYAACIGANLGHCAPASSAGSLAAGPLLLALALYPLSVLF

[4] = growth suppression of PTEN-null colon cells, dose response, cell-based, HCT116 PTEN knockout (AID 1047); type: functional;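 note: HCT116 colon tumor cells with PTEN knocked out; cells exposed to compound for 60 hours before readout; potency for loss of cell viability measured by luminescence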
[5] = growth suppression of beta-catenin-knockout colon cells, dose response, cell-based, HCT116, human colon tumor (AID 1045); type: functional;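 note: HCT116 colon tumor cells with beta catenin knocked out; cells exposed to compound for 60 hours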
Protein Rev = Protein Rev (Human immunodeficiency virus type 1 group M subtype B (isolate WMJ22)(HIV-1), UniProt P05866); test: HIV-1 Rev-RRE RNA binding disruptors, dose response, biochemical, protein-RNA interaction (AID 842); set-up: species or system Human immunodeficiency virus 1
[6] = target: Neuropeptides B/W receptor type 1 (Homo sapiens, UniProt P48145); test: Fluorescence-based dose response cell-based high throughput screening assay to identify antagonists of the G-protein coupled receptor 7 (GPR7). [Related pubchem assays: 1952 (Screening assay (GPR7 antagonists).), 1880 (Summary AID.)]; type: functional
[7] = target: Melanin-concentrating hormone receptor 1 (Homo sapiens, UniProt Q99705); test: Fluorescence-based counterscreen for antagonists of the G-protein coupled receptor 7 (GPR7): cell-based high throughput dose response assay to identify antagonists of the melanin-concentrating hormone receptor 1 (MCHR1).; type: functional
[8] = target: DNA dC->dU-editing enzyme APOBEC-3A (Homo sapiens, UniProt P31941); test: Dose Response confirmation of small molecule APOBEC3A DNA Deaminase Inhibitors via a fluorescence-based single-stranded DNA deaminase assay. [Related pubchem assays (depositor defined):AID493011, AID493024]; type: functional
[9] = target: DNA dC->dU-editing enzyme APOBEC-3G (Homo sapiens, UniProt Q9HC16); type: functional;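 note: Dose-response counterscreen measuring inhibition of APOBEC3G DNA deaminase activity, run while confirming APOBEC3A inhibitors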
[10] = inhibitors of firefly luciferase expression or activity, dose response, H4 neuroglioma cells, luminescence (AID 1990); type: functional, cell-based
[11] = target: T2, Luciferin 4-monooxygenase (Photinus pyralis, UniProt P08659); test: Counter Screen for Luciferase-based Assay Positives. [Related pubchem assays: 620, 618, 411 ]
cells = type: functional, cell-based
[12] = Luminescence Cell-Based Dose Response HTS to Identify Inhibitors of 5'UTR Stem-Loop Driven Prion Protein mRNA Translation in H4 Neuroglioblastoma Cells. [Related pubchem assays: 1827 (Project Summary), 1813 (Primary HTS)]; type: functional
[13] = target: T3, Heat shock factor protein 1 (Mus musculus, UniProt P38532); test: inhibition of MG132-induced HSE-luciferase signal, confirmation, cell-based, NIH3T3, luminescence, dose retest (AID 2382); type: functional;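 note: NIH3T3 fibroblasts with HSF1-driven luciferase reporter stressed by proteasome inhibitor MG132; luminescence from HSF1-driven luciferase expression after 8 hours of MG132 stress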
T3 sequence (P38532 whole entry): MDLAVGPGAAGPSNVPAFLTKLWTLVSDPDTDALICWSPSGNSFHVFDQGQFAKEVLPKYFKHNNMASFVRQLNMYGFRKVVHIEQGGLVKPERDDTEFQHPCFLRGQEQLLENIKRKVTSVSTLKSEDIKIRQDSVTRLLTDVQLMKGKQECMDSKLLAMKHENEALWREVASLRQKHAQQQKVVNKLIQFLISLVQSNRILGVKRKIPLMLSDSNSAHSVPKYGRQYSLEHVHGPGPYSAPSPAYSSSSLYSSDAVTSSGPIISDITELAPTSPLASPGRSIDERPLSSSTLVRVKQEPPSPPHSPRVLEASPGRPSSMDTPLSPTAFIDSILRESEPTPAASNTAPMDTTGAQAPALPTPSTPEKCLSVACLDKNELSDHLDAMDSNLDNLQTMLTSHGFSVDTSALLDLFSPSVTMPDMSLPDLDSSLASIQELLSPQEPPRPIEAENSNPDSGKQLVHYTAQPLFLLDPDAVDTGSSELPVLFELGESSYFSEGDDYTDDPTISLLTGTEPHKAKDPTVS

[14] = inhibitors of SNCA 5'UTR-driven reporter translation, confirmation, H4 neuroglioma cells, luminescence (AID 1988); type: functional, cell-based
[15] = target: T2, Luciferin 4-monooxygenase; test: firefly luciferase enzyme inhibitors, dose response, biochemical, luminescence (AID 1891)
[16] = Luminescence Cell-Based Dose Confirmation HTS to Identify Inhibitors of Platelet Dense Granule Release. [Related pubchem assays: 1663 (Primary HTS), 1678 (Summary of Project)]; type: functional
HT-1080 = test: cytotoxicity in HT1080 fibrosarcoma cells, cell-based, fluorescence readout (AID 620); type: functional; details: Homo sapiens
[17] = inhibitors of SNCA 5'UTR-driven translation, confirmation, luminescence, H4 neuroglioblastoma cells, dose confirmation (AID 2454); type: functional, cell-based;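 note: H4 neuroglioblastoma cells carrying an alpha-synuclein 5'UTR luciferase reporter; potency for inhibition of the luciferase signal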
[18] = target: T4, Microphthalmia-associated transcription factor (Homo sapiens, UniProt O75030); test: TRPM1 promoter luciferase signal decrease, dose response, MITF inhibitor project, cell-based, SK-MEL-5, cherry-picked, set 3 (AID 493073); type: functional
T4 sequence (O75030 whole entry): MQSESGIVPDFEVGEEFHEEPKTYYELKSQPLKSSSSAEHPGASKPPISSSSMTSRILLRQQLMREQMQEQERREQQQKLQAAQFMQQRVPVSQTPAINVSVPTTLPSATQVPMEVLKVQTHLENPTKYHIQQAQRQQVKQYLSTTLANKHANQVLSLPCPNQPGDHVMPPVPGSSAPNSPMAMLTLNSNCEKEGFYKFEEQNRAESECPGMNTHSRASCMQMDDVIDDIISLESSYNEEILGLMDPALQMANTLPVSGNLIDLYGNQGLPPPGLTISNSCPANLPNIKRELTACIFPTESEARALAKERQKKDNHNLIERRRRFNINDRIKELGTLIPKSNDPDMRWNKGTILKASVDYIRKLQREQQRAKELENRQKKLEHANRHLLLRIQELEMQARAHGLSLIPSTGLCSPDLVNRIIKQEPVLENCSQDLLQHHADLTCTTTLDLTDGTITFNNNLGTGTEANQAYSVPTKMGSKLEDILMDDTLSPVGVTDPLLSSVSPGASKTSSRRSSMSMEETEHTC

A-375 = test: A375 melanoma cell viability reduction, dose response, counter-screen for MITF modulator project, cherry-pick samples, set 2 (AID 540335); type: functional, cell-based; details: Homo sapiens

T2 sequence (P08659 whole entry): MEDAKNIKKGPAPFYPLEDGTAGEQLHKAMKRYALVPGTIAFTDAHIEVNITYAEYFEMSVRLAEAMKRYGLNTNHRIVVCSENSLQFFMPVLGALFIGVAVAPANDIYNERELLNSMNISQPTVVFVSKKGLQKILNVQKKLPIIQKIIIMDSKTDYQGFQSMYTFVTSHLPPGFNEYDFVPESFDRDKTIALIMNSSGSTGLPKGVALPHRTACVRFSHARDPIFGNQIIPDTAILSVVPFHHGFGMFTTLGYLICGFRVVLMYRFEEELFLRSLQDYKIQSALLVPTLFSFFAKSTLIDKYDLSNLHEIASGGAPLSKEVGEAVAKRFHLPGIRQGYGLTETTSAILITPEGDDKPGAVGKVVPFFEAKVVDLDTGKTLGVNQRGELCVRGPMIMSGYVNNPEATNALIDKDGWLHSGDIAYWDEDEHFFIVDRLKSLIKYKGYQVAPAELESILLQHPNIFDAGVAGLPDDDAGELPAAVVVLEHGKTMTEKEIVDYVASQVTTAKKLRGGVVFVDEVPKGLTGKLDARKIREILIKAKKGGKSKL
Chain of Melanin-concentrating hormone receptor 1 (Q99705 whole entry): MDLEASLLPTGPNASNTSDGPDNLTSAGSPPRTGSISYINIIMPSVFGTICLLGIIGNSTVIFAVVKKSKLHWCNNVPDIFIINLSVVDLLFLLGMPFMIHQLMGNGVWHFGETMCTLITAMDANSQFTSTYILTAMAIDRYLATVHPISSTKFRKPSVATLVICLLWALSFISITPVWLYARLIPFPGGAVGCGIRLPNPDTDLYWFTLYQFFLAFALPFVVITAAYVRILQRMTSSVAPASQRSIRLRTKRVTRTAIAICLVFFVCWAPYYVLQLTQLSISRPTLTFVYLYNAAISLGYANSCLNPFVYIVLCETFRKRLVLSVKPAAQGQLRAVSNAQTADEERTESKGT
Chain of Serine/threonine-protein phosphatase (Q9BPW0 whole entry): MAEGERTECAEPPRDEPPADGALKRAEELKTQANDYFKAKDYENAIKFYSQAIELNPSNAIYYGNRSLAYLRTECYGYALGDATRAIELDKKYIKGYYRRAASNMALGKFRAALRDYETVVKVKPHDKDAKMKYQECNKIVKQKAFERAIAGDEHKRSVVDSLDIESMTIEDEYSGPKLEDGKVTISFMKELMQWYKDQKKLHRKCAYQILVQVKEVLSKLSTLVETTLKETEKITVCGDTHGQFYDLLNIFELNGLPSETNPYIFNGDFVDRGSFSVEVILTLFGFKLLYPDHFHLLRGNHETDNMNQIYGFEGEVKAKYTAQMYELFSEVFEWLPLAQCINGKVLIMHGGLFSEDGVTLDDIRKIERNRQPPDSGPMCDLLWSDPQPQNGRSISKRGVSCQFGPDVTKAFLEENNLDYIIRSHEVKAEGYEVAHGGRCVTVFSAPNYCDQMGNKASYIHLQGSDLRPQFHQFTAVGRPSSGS
Chain of Neuropeptides B/W receptor type 1 (P48145 whole entry): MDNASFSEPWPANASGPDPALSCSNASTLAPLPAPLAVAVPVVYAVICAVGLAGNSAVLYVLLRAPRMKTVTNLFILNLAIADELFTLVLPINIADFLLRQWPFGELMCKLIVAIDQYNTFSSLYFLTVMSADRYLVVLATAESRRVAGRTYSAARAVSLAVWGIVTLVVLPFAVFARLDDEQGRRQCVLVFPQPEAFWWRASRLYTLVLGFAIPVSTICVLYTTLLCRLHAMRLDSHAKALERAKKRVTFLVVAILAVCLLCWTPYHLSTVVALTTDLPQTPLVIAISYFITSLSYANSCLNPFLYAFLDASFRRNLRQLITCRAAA
Chain of DNA dC->dU-editing enzyme APOBEC-3G (Q9HC16 whole entry): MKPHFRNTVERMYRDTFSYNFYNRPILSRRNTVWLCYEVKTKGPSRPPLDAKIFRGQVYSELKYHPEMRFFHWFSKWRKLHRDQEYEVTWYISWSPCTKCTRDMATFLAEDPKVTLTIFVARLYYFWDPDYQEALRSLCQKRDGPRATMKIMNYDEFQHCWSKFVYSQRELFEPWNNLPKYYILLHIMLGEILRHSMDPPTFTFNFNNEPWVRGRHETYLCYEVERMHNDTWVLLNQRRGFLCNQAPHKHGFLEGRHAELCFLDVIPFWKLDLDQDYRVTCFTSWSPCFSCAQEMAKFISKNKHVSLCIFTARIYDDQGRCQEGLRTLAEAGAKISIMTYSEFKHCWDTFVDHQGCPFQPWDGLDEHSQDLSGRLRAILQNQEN
Chain of Serine/threonine-protein phosphatase PP1-alpha catalytic subunit (P62136 whole entry): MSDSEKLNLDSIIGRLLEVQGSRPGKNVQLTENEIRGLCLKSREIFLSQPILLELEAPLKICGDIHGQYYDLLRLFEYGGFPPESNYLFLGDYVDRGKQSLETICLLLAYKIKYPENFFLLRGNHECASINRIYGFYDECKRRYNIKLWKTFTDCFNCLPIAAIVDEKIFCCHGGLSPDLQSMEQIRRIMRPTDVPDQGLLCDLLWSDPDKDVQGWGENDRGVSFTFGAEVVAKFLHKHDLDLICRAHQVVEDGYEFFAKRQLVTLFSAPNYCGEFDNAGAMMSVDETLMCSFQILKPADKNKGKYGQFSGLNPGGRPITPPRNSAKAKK
Chain of Protein Rev (P05866 whole entry): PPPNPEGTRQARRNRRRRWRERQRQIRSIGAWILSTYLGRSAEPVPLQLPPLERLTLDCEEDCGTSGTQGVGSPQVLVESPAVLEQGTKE
Chain of DNA dC->dU-editing enzyme APOBEC-3A (P31941 whole entry): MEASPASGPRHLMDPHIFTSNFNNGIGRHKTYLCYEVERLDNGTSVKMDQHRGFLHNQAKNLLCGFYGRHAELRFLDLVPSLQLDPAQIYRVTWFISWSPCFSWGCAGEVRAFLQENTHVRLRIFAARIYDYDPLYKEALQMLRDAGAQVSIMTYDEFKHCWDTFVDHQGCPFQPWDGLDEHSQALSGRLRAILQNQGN

For `O=C(O)C1C2CCC(O2)C1C(=O)NC1CCCCC1` (configuration not stated), the IC50 [1] was 3.7 µM (active) and the IC50 [2] was 3.03 µM (active).

In the case of `Cn1c(N/N=C2\CCCc3ccccc32)nc2c1c(=O)n(Cc1ccc(F)cc1)c(=O)n2C`, the EC50 [3] is reported as 18.8 µM (active), the EC50 [4] is reported as 9.86 µM (active) and the EC50 [5] is reported as 10.2 µM (active).

For `CCOC(=O)c1c(C)n(C)c2ccc(O)c(CN(C)C)c12`, the IC50 (Protein Rev) was > 79.4 µM (not active).

In the case of `FC(F)(F)c1cccc(C[n+]2c3n(c4ccc(C(F)(F)F)cc42)CCCCC3)c1`, the IC50 [6] is reported as 19.7 µM (not active), the IC50 [7] is reported as 13 µM (not active) and the IC50 [8] is reported as 2.17 µM (active). The IC50 [9] was 3.21 µM (active).

For `O=C(/C=C\Nc1ccc2c(c1)OCO2)c1ccccn1`, the EC50 [10] was 0.649 µM (active), the EC50 [11] was 23.4 µM (active) and the EC50 (cells) was > 12 µM (inconclusive). The EC50 [12] was < 0.1 µM (active), the EC50 [13] was 4.62 µM (active) and the EC50 [14] was 0.234 µM (active). For the same molecule, the EC50 [15] was 0.634 µM (active), the EC50 [16] was 3.3 µM (active) and the EC50 (HT-1080) was > 50 µM (not active). For the same molecule, the EC50 [17] was 0.874 µM (active), the AC50 [18] was 2.08 µM (active) and the AC50 (A-375) was 41 µM (active).
